Laboratory results reported in patent publication US8815937B2, “Lipoyl compounds and their use for treating ischemic injury” (Ischemix LLC, priority 2010, dated 2014).

Key:
[1] = system: rat model of MI/AR injury (myocardial ischemia-reperfusion injury); assay: Rat model of MI/AR injury (LCA ligation, myocardial ischemia-reperfusion); type: in vivo; settings: for MI/AR Reduction (%): male Sprague-Dawley rats, compound given 15 minutes prior to ligation, intravenous, doses ranged 1-20 mg/kg, 24 hours after reperfusion, relative to vehicle controls; for Reduction in Cardiac injury: LCA rat model, procedure of Example 2
Text: A rat model of MI/AR injury was used as an in vivo screen to determine if the compounds of Tables 1-5 were cardio-protective (e.g., against myocardial ischemia-reperfusion injury). This model is analogous to the ischemia-reperfusion injury observed in cardiac patients following coronary occlusions and cardiac surgery procedures, such as coronary artery bypass grafting (CABG) (Matsui, T., Tao, J., del Monte, F., Lee, K.-H. et al., Akt Activation Preserves Cardiac Function and Prevents Injury After Transient Cardiac Ischemia In vivo, Circulation 2001, 104:330, the teachings of which are incorporated herein by reference in their entirety).
The circumflex branch of the left coronary artery (LCA) was ligated temporarily to induce regional ischemia in the left ventricular mass, followed by the injection of fluorescent microspheres to delineate the ischemic region. 15 minutes prior to ligation (pre-occlusion, pre-ischemic episode), a compound from Tables 1-5 was administered to the animals. Doses of the compounds listed in Tables 1-5 ranged from 1-20 mg/kg. The animals were sacrificed about 24 hours after reperfusion and the hearts were excised, sectioned and stained with triphenyltetrazolium. The direct impact of the pharmacologic intervention was determined by measuring the myocardial infarct area (MI), the ischemic area at risk (AR) and the left ventricular area (LV). The reduction of MI over the AR (MI/AR ratio) was used as the primary measure of drug efficacy relative to vehicle controls.
Male Sprague-Dawley rats between 300 and 350 g were used for these experiments. Anesthesia was induced with 3-4% isoflurane in an induction chamber. After induction, anesthesia was maintained at a surgical plane with 1.5-2.0% isoflurane, administered by a Rodent Ventilator through a 16-gauge angiocatheter introduced orally into the trachea. The ventilator was set at 2.5 cc at a rate of 60-65 breaths per minute to maintain ventilation during surgery. The core temperature of the animal was monitored and maintained at 37° C. using a rectal probe and a heating lamp attached to a temperature controller.
A left anterior thoracotomy was performed and the heart was exposed using a vertical pericardotomy. The circumflex branch of the left coronary artery (LCx) was ligated approximately 4 mm from the aorta using a cardiovascular 7.0 monofilament suture on an 11 mm needle to induce ischemia in the left ventricle.
Fluorescent microspheres (300 μL) were injected into the left ventricular cavity 10-20 minutes after the ligation to delineate the ischemic area. The suture was removed 30 minutes after ligation to reperfuse the ischemic area and the ischemic area was checked for reperfusion.
The chest was then closed in layers using absorbable suture (Dexon 5-0) for the muscle layers and monofilament Nylon 5-0 suture was used to close the cutaneous layer. The animals were allowed to recover, then were returned to the colony.
Twenty-four hours after reperfusion, anesthesia was induced using ketamine hydrochloride and the chest was opened. The animals were sacrificed with 15% potassium chloride aqueous solution (w/v) injected into the LV cavity to arrest the heart in diastole. The heart was excised distal to the aortic valve and washed with saline to remove the blood. Sagittal slices of the heart were obtained between the base of the ventricle and the apex. Five slices of heart tissue were obtained, each 2 mm thick. The slices were immersed in a 1% 2,3,5-triphenyl-2H-tetrazolium chloride (TTC) in saline solution and then stored in the dark for 30 minutes to stain.
Images of the slices were obtained under bright field (to observe the TTC staining) and under fluorescence (to observe the microspheres). The area at risk was determined by the absence of microspheres and the infarct area was determined by the absence of TTC staining.

[2] = system: PAC rat model of ischemia-induced renal injury; assay: Partial aortic clamping (PAC) rat model of ischemia-induced renal injury; type: in vivo; settings: for Reduction of SCr vs. control: serum creatinine 24 hours post-surgery; for serum creatinine concentrations relative to the control animals (in words): administered intravenously
Text: A partial aortic clamping (PAC) rat model of ischemia-induced renal injury was used as an in vivo screen to determine if RLip-EA-OH (Entry 1), RLip-Cya-OH (Entry 10), RLip-Tau (Entry 13), and RLip-aminoethylphosphonic acid (Entry 15) were renal-protective (e.g., against renal ischemia-reperfusion injury). This model simulates ischemia-reperfusion injury observed in renal patients following ischemia-induced renal failure (Molitoris, B. A., Dagher, P. C., Sandoval, R. M., Campos, S. B., Ashush, H., Fridman, E., Brafman, A. Faerman, A., Atkinson, S. J., Thompson, J. D., Kalinski, H., Skaliter, R., Erlich, S., Feinstein, E. “siRNA Targeted to p53 Attenuates Ischemic and Cisplatin-Induced Acute Kidney Injury.” J Am Soc Nephrol, 2009, vol. 20, 1754-1764, the teachings of which are incorporated herein by reference to their entirety). Serum creatinine concentrations (SCr) typically rise due to renal ischemia and effective treatment should show a reduction in serum creatinine concentrations.
The abdominal aorta just below the renal arteries was isolated and temporarily ligated to induce regional ischemia using an aortic clamp. An initial blood sample was drawn at study initiation for baseline creatinine measurement and at 24 hours post-surgery for functional evaluation of the severity of kidney injury. The animals were sacrificed about 24 hours after reperfusion.
Male Sprague-Dawley rats between 200 to 250 g were used for these experiments. Anesthesia was induced with 5% halothane and maintained with 1-1.5% halothane in oxygen-enriched air via a face mask. The rats were maintained on a warming blanket throughout the procedure to maintain body temperature at 37° C. After shaving the abdomen of the rat, a midline incision was made through the skin and musculature to expose the abdominal cavity to quantify the aortic blood flow (ABF).
Aortic clamps comprised of two 4-mm in length polyethylene tubes (PE-100, 0.86-mm diameter) were then placed around the aorta to induce renal ischemia. One clamp was placed around the aorta and the other was placed to exert variable tension via a 10-in. 3.0 silk suture. The silk thread was then tied and the tension on the two ends of the thread increased until there was a 90% reduction of initial (ABF) rate measured on the ultrasonic probe reader. A 10% baseline blood flow was maintained for a period of 30 minutes.
RLip-EA-OH (Entry 1) at 10 mg/kg; RLip-Cya-OH (Entry 10) at 3 mg/kg; RLip-Tau (Entry 13) at 3 mg/kg; and RLip-aminoethylphosphonic acid at 10 mg/kg, 3 mg/kg, and 1 mg/kg were administered intravenously via the femoral vein as a bolus dose 15 minutes prior to ischemia. A 0.15-mL venous blood sample was drawn at study initiation for baseline creatinine measurement and at 24 hours postsurgery for functional evaluation of the severity of kidney injury. Serum creatinine concentrations were then measured on a Creatinine Analyzer 2. The efficacy of RLip-EA-OH and RLip-Tau were measured against the results of vehicle-treated animals in the blinded studies. A 2-tail t-test was used to determine differences between treatments.

[3] = 3 mg/kg iv bolus 15 minutes prior to ischemia
[4] = 10 mg/kg iv bolus 15 minutes prior to ischemia

| Structure (SMILES) | MI/AR Reduction (%) [1] [%] | also measured |
| --- | --- | --- |
| O=C(O)CCC(NC(=O)CCCCC1CCSS1)C(=O)O [Entry 9, N-(R)-lipoyl-L-glutamic acid] | 33 | – |
| CC(NC(=O)C(Cc1ccc(O)cc1)NC(=O)CCCCC1CCSS1)C(=O)O [Entry 3, N-(R)-lipoyl-L-tyrosinyl-L-alanine] | 31 | – |
| O=C(O)CCC(NC(=O)CCCCC1CCSS1)C(=O)NCCS(=O)(=O)O [Entry 4, N-(R)-lipoyl-L-glutamyltaurine] | 33 | – |
| O=C(CCCC[C@@H]1CCSS1)Nc1ccc(S(=O)(=O)O)cc1 [Entry 19, N-(R)-lipoyl-para-aminobenzene sulfonic acid] | 44 | – |
| O=C(O)CCNC(=O)CCCC[C@@H]1CCSS1 [Entry 12, N-(R)-lipoyl-β-alanine] | 39 | – |
| O=C(CCCC[C@@H]1CCSS1)Nc1ccc(C(=O)O)cc1 [Entry 17, N-(R)-lipoyl-para-aminobenzoic acid] | 22 | – |
| O=C(CCCC[C@@H]1CCSS1)NCCP(=O)(O)O [Entry 15, N-(R)-lipoyl-aminoethylphosphonic acid] | 53 | Reduction of SCr vs. control ([2]; 1 mg/kg iv bolus 15 minutes prior to ischemia): 28.6%; Reduction of SCr vs. control [2, 3]: 28.6%; Reduction of SCr vs. control [2, 4]: 76.0%; serum creatinine concentrations relative to the control animals (in words) [2]: effectively reduced serum creatinine concentrations; Reduction in Cardiac injury ([1]; dose group 1 mg/kg): 30%; Reduction in Cardiac injury ([1]; dose group 3 mg/kg): 50%; Reduction in Cardiac injury ([1]; dose group 10 mg/kg): 32% |
| O=C(CCCCC1CCSS1)NC(CF)C(=O)O [Entry 7, N-(R)-lipoyl-fluoroalanine] | 10 | – |
| O=C(CCCCC1CCSS1)NCCOP(=O)(O)O [Entry 16, N-(R)-lipoyl-aminoethyl dihydrogenphosphate] | 47 | – |
| O=C(O)CN(CC(=O)O)C(=O)CCCC[C@@H]1CCSS1 [Entry 11, N-(R)-lipoyliminodiacetic acid] | 21 | – |
| O=C(CCCCC1CCSS1)NC(Cc1ccc(O)cc1)C(=O)O [Entry 8, N-(R)-lipoyl-L-tyrosine] | 29 | – |
| O=C(O)CNC(=O)C(CC(=O)O)NC(=O)CCCCC1CCSS1 [Entry 2, N-lipoyl-L-aspartylglycine] | 28 | – |
| O=C(CCCC[C@@H]1CCSS1)Nc1cccc(S(=O)(=O)O)c1 [Entry 18, N-(R)-lipoyl-meta-aminobenzene sulfonic acid] | 33 | – |
| O=C(CCCCC1CCSS1)NC(Cc1ccc(C(=O)O)cc1)C(=O)O [Entry 6, N-(R)-lipoyl-L-4-carboxyphenylalanine] | 26 | – |
| O=C(CCCCC1CCSS1)NCCOS(=O)(=O)O [Entry 14, N-(R)-lipoyl-aminoethyl hydrogensulfate] | 30 | – |
| CC(NC(=O)CCCCC1CCSS1)C(=O)NC(CCC(=O)O)C(=O)O [Entry 5, N-(R)-lipoyl-L-alanyl-L-glutamic acid] | 24 | – |
| CC(NC(=O)C(CCC(=O)O)NC(=O)CCCCC1CCSS1)C(=O)O [Entry 1, N-(R)-lipoyl-L-glutamyl-L-alanine] | 31 | Reduction of SCr vs. control [2, 4]: 39.5%; serum creatinine concentrations relative to the control animals (in words) [2]: effectively reduced serum creatinine concentrations; Reduction in Cardiac injury ([1]; dose group 10 mg/kg): 33% |
| O=C(CCCCC1CCSS1)NC(CS(=O)(=O)O)C(=O)O [Entry 10, N-(R)-lipoyl-L-cysteic acid] | 30 | Reduction of SCr vs. control [2, 3]: 39.5%; serum creatinine concentrations relative to the control animals (in words) [2]: effectively reduced serum creatinine concentrations; Reduction in Cardiac injury ([1]; dose group 3 mg/kg): 30% |
| O=C(CCCC[C@@H]1CCSS1)NCCS(=O)(=O)O [Entry 13, N-(R)-lipoyl-taurine] | – | Reduction of SCr vs. control [2, 3]: 39.5%; serum creatinine concentrations relative to the control animals (in words) [2]: effectively reduced serum creatinine concentrations; Reduction in Cardiac injury ([1]; dose group 3 mg/kg): 50% |
